Source: patent publication US10702571B2, “Materials for cathepsin B enhancement and methods of use” (The University of North Carolina at Pembroke, priority 2015, dated 2020)
Where a SMILES comes first, the peptide text is derived from it. The star is where a group is joined. Cbz = O=C(OCc1ccccc1)*

Legend:
[1] = tested on: 30-kDa active form of cathepsin B (CatB-30); assay: Hippocampal slice cultures treated for two days, immunoblot for active cathepsin B; type: cell-based, rodent; details: for effect of the cathepsin B positive modulator PADK in combination with flavonol (summary in words) / levels of cathepsin B (summary in words): summary in the discussion; for increase in CatB-30 by flavonol alone: 5 μM flavonol alone for 2 days; for increase in cathepsin B (CatB-30): vs non-treated slices, statistically significant
Description: FIG. 1. Cathepsin B positive modulation by flavonols—members of the flavonoid class of polyphenolic compounds. Flavonols of quercetin (Q), fisetin (F), and myricetin (M) were applied daily to rodent hippocampal slice cultures. After two (2) days, non-treated (NT) and treated slices were harvested, homogenates were prepared, and equal protein aliquots were assessed by immunoblot to label the 30-kDa active form of cathepsin B (CatB-30). […] FIG. 2. Cathepsin B positive modulation by Z-Phe-Pro-OH. The compound Z-Phe-Pro-OH was applied to rodent hippocampal slice cultures for two (2) days. […] FIG. 3. Quercetin enhances the effect of the cathepsin B positive modulator Z-Phe-Ala-diazomethylketone (PADK). Quercetin (Q) at 5 μM was added to the daily PADK treatments of rodent hippocampal slice cultures. After two (2) days, non-treated (NT) and treated slices were harvested, homogenates were prepared, and equal protein aliquots were assessed by immunoblot to label the active form of cathepsin B (CatB-30). Paired, two-tailed t-test among distinct immunoblots found a statistically significant enhancement of the PADK effect by quercetin (p=0.0167; pairing was effective: p=0.0014). An enhancement of 60-70% occurred, whereas 5 μM quercetin alone for 2 days caused only a 21% increase in CatB-30. FIG. 4. Fisetin and myricetin enhance the cathepsin B positive modulation produced by 10 μM Z-Phe-Ala-diazomethylketone (PADK). Fisetin at 5 μM (top graph) or myricetin at 5 μM (bottom graph) were added to the two daily PADK treatments of rodent hippocampal slice cultures. The non-treated (NT) and treated slices were harvested, homogenates were prepared, and equal protein aliquots were assessed by immunoblot to label the active form of cathepsin B (CatB-30). […] An enhancement of 95-140% was produced by fisetin, whereas 5 μM fisetin alone for two (2) days caused only a 40% increase in CatB-30. FIG. 5. Dose-dependent enhancement of the PADK effect on CatB by flavonols. Quercetin (Q), fisetin (F), and myricetin (M) at 5-10 μM were applied daily to rodent hippocampal slice cultures that were also treated with 3 μM PADK (top graph) or 10 μM PADK (bottom graph). After two (2) days, non-treated (NT) and treated slices were harvested, homogenates were prepared, and equal protein aliquots were assessed by immunoblot to label the 30-kDa active form of cathepsin B (CatB-30). […] The 10 μM PADK slices indicate that each flavonol at the lower concentration has an enhancing effect, but the effect is eliminated or reduced when the flavonol concentration is doubled. As described in FIG. 1, flavonols such as quercetin (Q), fisetin (F), and myricetin (M) were applied daily to rodent hippocampal slice cultures. After two (2) days, non-treated (NT) and treated slices were harvested, homogenates were prepared, and equal protein aliquots were assessed by immunoblot to label the 30-kDa active form of cathepsin B (CatB-30). As described in FIG. 2, the compound of Z-Phe-Pro-OH was applied to rodent hippocampal slice cultures for two (2) days. As described in FIG. 3, the flavonol of quercetin (Q) was added at 5 μM to the daily PADK treatments of rodent hippocampal slice cultures. After two (2) days, non-treated (NT) and treated slices were harvested, homogenates were prepared, and equal protein aliquots were assessed by immunoblot to label the active form of cathepsin B (CatB-30). As described in FIG. 4, the flavonols of fisetin at 5 μM (top graph of FIG. 4) or myricetin at 5 μM (bottom graph of FIG. 4) were added to the two daily PADK treatments of rodent hippocampal slice cultures. The non-treated (NT) and treated slices were harvested, homogenates were prepared, and equal protein aliquots were assessed by immunoblot to label the active form of cathepsin B (CatB-30). As described in FIG. 5, the flavonols of quercetin (Q), fisetin (F), and myricetin (M) at 5-10 μM were applied daily to rodent hippocampal slice cultures that were also treated with 3 μM PADK (top graph) or 10 μM PADK (bottom graph). […]

synaptic marker GluR1 = assay: Oral dosing in peanut butter pellets to middle-aged mice, dissected hippocampi: synaptic marker GluR1; type: in vivo; details: oral twice daily for 11 days, hippocampus, vs control compound
Description: (§1) Compounds in peanut butter pellets were administered to middle-aged mice orally twice daily for 11 days, then dissected hippocampi were compared to control mice that received the same oral dosing with control compound.

CatB-30 = assay: Oral dosing in peanut butter pellets to middle-aged mice, dissected hippocampi: CatB-30; type: in vivo; details: oral twice daily for 11 days, hippocampus, vs control compound
Description: as §1

[2] = flavonol at 5 and 10 μM daily with 3 μM PADK, two days

## O=c1c(O)c(-c2cc(O)c(O)c(O)c2)oc2cc(O)cc(O)c12 [myricetin]
[1]; 5 μM myricetin added to two daily treatments with 10 μM PADK, one-tailed p=0.033
  enhancement of the PADK effect on CatB-30 (in words): smaller enhancement
[1]; [2]
  enhancement of the PADK effect on CatB-30 (in words): no enhancing effect at either concentration
[1]
  effect of the cathepsin B positive modulator PADK in combination with flavonol (summary in words): enhance the effect
  levels of cathepsin B (summary in words): increase levels of cathepsin B

## O=c1c(O)c(-c2ccc(O)c(O)c2)oc2cc(O)ccc12 [fisetin]
[1]; 5 μM fisetin added to two daily treatments with 10 μM PADK
  enhancement of the PADK effect on CatB-30: 95-140%
[1]
  increase in CatB-30 by flavonol alone: 40%
  effect of the cathepsin B positive modulator PADK in combination with flavonol (summary in words): enhance the effect
  levels of cathepsin B (summary in words): increase levels of cathepsin B
[1]; 5-30 μM fisetin applied daily, two days
  increase in cathepsin B (CatB-30): 1.65 fold
[1]; [2]
  enhancement of the PADK effect on CatB-30 (in words): only the higher 10 μM concentration of fisetin enhanced the effect

## O=c1c(O)c(-c2ccc(O)c(O)c2)oc2cc(O)cc(O)c12 [quercetin]
Synaptic marker GluR1
  synaptic marker GluR1: enhanced synaptic marker GluR1
CatB-30; female middle-aged mice
  CatB-30 in female mice: increased CatB-30 in female mice
CatB-30; male middle-aged mice
  CatB-30 in male mice: increased CatB-30 in male mice
[1]
  increase in CatB-30 by flavonol alone: 21%
  effect of the cathepsin B positive modulator PADK in combination with flavonol (summary in words): enhance the effect
  levels of cathepsin B (summary in words): increase levels of cathepsin B
[1]; 5 μM quercetin added to the daily PADK treatments, two days
  enhancement of the PADK effect on CatB-30: 60-70%
[1]; 5-20 μM quercetin applied daily, two days
  increase in cathepsin B (CatB-30): 1.96 fold
[1]; [2]
  enhancement of the PADK effect on CatB-30 (in words): both 5 and 10 μM quercetin enhanced the PADK effect

## O=C(N[C@@H](Cc1ccccc1)C(=O)N1CCC[C@H]1C(=O)O)OCc1ccccc1 [Z-Phe-Pro-OH, N-carbobenzoxy-L-phenylalanyl-L-proline] (Cbz-Phe-Pro-OH)
[1]
  levels of cathepsin B (summary in words): increase levels of cathepsin B
